# Columns and labels:
# [1] = biological target: Cruzipain (Trypanosoma cruzi, UniProt P25779); test: Inhibition of Trypanosoma cruzi recombinant cruzain by fluorescence technique
# [2] = biological target: Rhodesain (Trypanosoma brucei rhodesiense, UniProt Q95PM0); test: Inhibition of Trypanosoma brucei rhodesiense recombinant rhodesain by fluorescence technique
# Rhodesain, sequence (Q95PM0 whole entry): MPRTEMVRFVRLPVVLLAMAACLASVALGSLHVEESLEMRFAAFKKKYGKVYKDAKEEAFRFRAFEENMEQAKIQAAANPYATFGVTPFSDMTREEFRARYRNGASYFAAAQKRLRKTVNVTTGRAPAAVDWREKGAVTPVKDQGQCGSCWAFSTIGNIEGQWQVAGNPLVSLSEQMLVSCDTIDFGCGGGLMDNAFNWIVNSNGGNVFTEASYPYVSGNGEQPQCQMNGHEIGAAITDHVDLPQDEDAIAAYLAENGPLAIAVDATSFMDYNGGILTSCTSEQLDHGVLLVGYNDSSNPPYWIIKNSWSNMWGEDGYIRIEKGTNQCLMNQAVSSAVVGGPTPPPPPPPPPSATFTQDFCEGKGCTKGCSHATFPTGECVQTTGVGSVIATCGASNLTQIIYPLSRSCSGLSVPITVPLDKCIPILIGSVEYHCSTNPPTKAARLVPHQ
# Cruzipain, sequence (P25779 whole entry): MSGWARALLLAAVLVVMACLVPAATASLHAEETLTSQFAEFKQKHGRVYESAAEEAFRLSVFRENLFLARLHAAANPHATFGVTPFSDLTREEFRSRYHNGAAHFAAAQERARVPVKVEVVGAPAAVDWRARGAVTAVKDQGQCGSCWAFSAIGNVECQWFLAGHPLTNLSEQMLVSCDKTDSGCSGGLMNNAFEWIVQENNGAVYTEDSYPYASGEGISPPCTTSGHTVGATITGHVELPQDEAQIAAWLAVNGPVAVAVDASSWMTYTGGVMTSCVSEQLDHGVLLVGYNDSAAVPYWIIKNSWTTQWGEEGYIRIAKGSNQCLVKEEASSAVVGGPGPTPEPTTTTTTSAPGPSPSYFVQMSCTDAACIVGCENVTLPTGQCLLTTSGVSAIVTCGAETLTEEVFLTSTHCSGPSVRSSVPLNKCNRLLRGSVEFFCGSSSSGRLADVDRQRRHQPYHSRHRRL
SMILES,IC50 [1] [µM],IC50 [2] [µM]
CC(C)C[C@@H]1N[C@@H](C(=O)Nc2ccccc2)CCCC[C@@H](/C=C/S(=O)(=O)c2ccccc2)NC1=O,> 10,10
CC(C)C[C@@H]1N[C@@H](C(=O)Nc2ccccc2)CCCCC[C@@H](/C=C/S(=O)(=O)c2ccccc2)NC1=O,2,6

# From ChEMBL document CHEMBL1151778, “Synthesis of macrocyclic trypanosomal cysteine protease inhibitors” (Bioorg Med Chem Lett, 2008)
